Tests used:
[1] = 100 kPa, Liquid, Vibrating tube method
[2] = wn = mass fraction of the nth substance listed; conditions: Liquid, Vibrating tube method

CN(CCO)CCO [N-methyldiethanolamine]
[1]
Conditions | mass density [kg/m3]
293.15 K | 1039.9
303.15 K | 1032.4
313.15 K | 1024.9
323.15 K | 1017.2
333.15 K | 1009.5
343.15 K | 1001.7
353.15 K | 993.9
363.15 K | 986
373.15 K | 978.28
383.15 K | 970.22
393.15 K | 962.03
403.15 K | 953.71
413.15 K | 945.29
423.15 K | 936.81

CN(CCO)CCO [N-methyldiethanolamine] + O
mass density [kg/m3], [2]
Conditions | w1 = 0.5 | w1 = 0.6 | w1 = 0.7 | w1 = 0.8
293.15 K, 101 kPa | 1045.8 | 1052.6 | 1056.1 | 1055.5
303.15 K, 101 kPa | 1039.6 | 1045.8 | 1048.8 | 1048.1
313.15 K, 101 kPa | 1033 | 1038.6 | 1041.3 | 1040.5
323.15 K, 101 kPa | 1026.1 | 1031.2 | 1033.6 | 1032.6
333.15 K, 101 kPa | 1018.9 | 1023.6 | 1025.6 | 1024.6
343.15 K, 101 kPa | 1011.4 | 1015.6 | 1017.4 | 1016.4
353.15 K, 101 kPa | 1003.5 | 1007.4 | 1009 | 1007.9
363.15 K, 101 kPa | 995.3 | 998.9 | 1000.4 | 999.3
373.15 K, 800 kPa | 987 | 990.32 | 991.79 | 990.82
383.15 K, 800 kPa | 978.16 | 981.18 | 982.65 | 981.74
393.15 K, 800 kPa | 968.93 | 971.76 | 973.23 | 972.51
403.15 K, 800 kPa | 959.28 | 962.08 | 963.68 | 963.09
413.15 K, 800 kPa | 949.4 | 952.13 | 953.72 | 953.38
423.15 K, 800 kPa | 939.06 | 941.91 | 943.63 | 943.53

OCCNCCO [diethanolamine] + O
mass density [kg/m3], [2]
Conditions | w1 = 0.5 | w1 = 0.6 | w1 = 0.7 | w1 = 0.8
293.15 K, 101 kPa | 1060.7 | 1073.1 | 1082.5 | 1089.6
303.15 K, 101 kPa | 1055.5 | 1067.4 | 1076.5 | 1083.6
313.15 K, 101 kPa | 1050 | 1061.4 | 1070.3 | 1077.4
323.15 K, 101 kPa | 1044.1 | 1055.2 | 1064 | 1070.9
333.15 K, 101 kPa | 1037.9 | 1048.6 | 1057.3 | 1064.2
343.15 K, 101 kPa | 1031.4 | 1041.9 | 1050.5 | 1057.4
353.15 K, 101 kPa | 1024.51 | 1034.7 | 1043.5 | 1050.5
363.15 K, 101 kPa | 1017.38 | 1027.3 | 1036.1 | 1043.1
373.15 K, 800 kPa | 1010.04 | 1020 | 1028.87 | 1035.98
383.15 K, 800 kPa | 1002.15 | 1012.14 | 1020.89 | 1028.08
393.15 K, 800 kPa | 994.94 | 1003.87 | 1012.73 | 1020.14
403.15 K, 800 kPa | 985.63 | 995.45 | 1004.18 | 1012.1
413.15 K, 800 kPa | 976.68 | 986.55 | 995.42 | 1003.23
423.15 K, 800 kPa | 967.44 | 977.38 | 986.45 | 995.43

From the NIST ThermoML archive (doi:10.1021/je300530z)
